Measured values published in paper PMC6112376, “Comprehensive Analyses and Prioritization of Tox21 10K Chemicals Affecting Mitochondrial Function by in-Depth Mechanistic Studies” (Environmental Health Perspectives, 2018).
Where two headings read alike, the source gives them in different places.

What was measured:
[1] = tested on: HepG2 cells; test: cells; conditions: Homo sapiens; for Emax: HepG2, read-out: MMP assays efficacy (%) HepG2
[2] = tested on: Nrf2/ARE (ARE-bla HepG2 cells); test: ARE β-lactamase reporter gene assay; assay type: cell-based, human; conditions: Homo sapiens, read-out: ARE (HepG2) EC50
[3] = tested on: hNSC; test: MMP assay in human neural stem cells (hNSC); assay type: cell-based; conditions: Homo sapiens, Neural stem cell; 1 h treatment; fresh re-sourced stocks; mean±SD of three experiments; read-out: hNSC IC50 (MMP)
[4] = tested on: isolated rat liver mitochondria; test: Oxygen consumption, Clark-type oxygen electrode; assay type: biochemical
[5] = tested on: HepG2 cells; conditions: cited from earlier work
[6] = tested on: HeLa cells expressing YFP-Parkin; test: Parkin translocation assay; assay type: cell-based, human
[7] = tested on: rat primary hepatocytes; test: MMP assay in rat primary hepatocytes; conditions: for Rat hepatocytes (efficacy) (MMP): % of positive control, mean±SD of three experiments; for IC50: Rattus norvegicus, Hepatocyte; for MMP assays efficacy (%) Rat Hepatocytes: mean ± SD of three experiments
[8] = tested on: HepG2 cells; test: Intracellular ATP content (cell viability) assay; assay type: cell-based, human; conditions: for IC50: Homo sapiens, HepG2
[9] = tested on: Caenorhabditis elegans strain PE255; test: In vivo C. elegans ATP status assay; conditions: for minimal effective concentration: Caenorhabditis elegans, read-out: LEC LUM: lowest effect concentration for luminescence, a measure of nematode ATP content
[10] = tested on: p53 (p53-bla HCT-116 cells); test: p53 β-lactamase reporter gene assay; assay type: cell-based, human
[11] = tested on: Caenorhabditis elegans (Bristol N2); test: C. elegans larval development and growth assay; conditions: for minimal effective concentration: Caenorhabditis elegans, read-out: LEC EXT: lowest effect concentration for extinction, a measure of nematode size
[12] = tested on: HepG2 cells; test: ROS-Glo hydrogen peroxide (ROS) assay; assay type: cell-based, human; conditions: Homo sapiens, read-out: ROS (HepG2) EC50
[13] = tested on: HepG2 cells
[14] = tested on: rat primary hepatocytes
[15] = HepG2, 1 h, read-out: HepG2 IC50 Galactose (MMP)
[16] = HepG2, 1 h, read-out: HepG2 IC50 Glucose (MMP)
[17] = HepG2, read-out: MMP assays IC50 (µM) HepG2
[18] = HepG2, 16 h incubation, mean±SD of three experiments
[19] = 100 µM, glutamate/malate driven state 3 respiration, isolated rat liver mitochondria
[20] = 100 µM, glutamate/malate driven state 4 respiration, isolated rat liver mitochondria
[21] = 100 µM, succinate-driven state 3 respiration, isolated rat liver mitochondria
[22] = 100 µM, succinate-driven state 4 respiration, isolated rat liver mitochondria
[23] = mitochondrial respiration in isolated rat liver mitochondria, Clark type oxygen electrode, over tested concentrations
[24] = read-out: MMP assays IC50 (µM) qHTS-HepG2
[25] = HeLa cells stably expressing YFP-Parkin, treated for 2 h
[26] = 1 h, read-out: Rat hepatocytes IC50 (MMP)
[27] = read-out: MMP assays IC50 (µM) Rat Hepatocytes
[28] = 16 h incubation, mean±SD of three experiments
[29] = HepG2, 2 h treatment, mean±SD of three experiments

## Nc1ccc2c(c1)C(=O)c1ccccc1C2=O [2-Aminoanthraquinone]
[1]; [15]
  IC50: 8.98 ± 1.62 µM
[1]; [16]
  IC50: 6.58 ± 0.9 µM
[1]; [17]
  IC50: 1.26 µM
[1]
  Emax: 85%
[2]; [18]
  EC50: 3.93 ± 0.89 µM
[3]
  IC50: 1.8 ± 0.83 µM
[4]; [19]
  I-ADP, % of control (O2 consumption rate): 101 (53.8) % of control
[4]; [20]
  I-sub, % of control (O2 consumption rate): 98 (13.2) % of control
[4]; [21]
  II-ADP, % of control (O2 consumption rate): 124 (83.8) % of control
[4]; [22]
  II-sub, % of control (O2 consumption rate): 107 (23.2) % of control
[4]; [23]
  Potential Mechanism: Inactive
[5]
  MMP assays efficacy (%) qHTS-HepG2: -85±11%
[5]; [24]
  IC50: 0.51 ± 0.29 µM
[6]; [25]
  Parkin recruitment: Inactive
[7]
  Rat hepatocytes (efficacy) (MMP): −58.3±7.52%
  MMP assays efficacy (%) Rat Hepatocytes: -91±30%
[7]; [26]
  IC50: 9.63 ± 3.17 µM
[7]; [27]
  IC50: 3.57 ± 2.61 µM
[8]; 5 mM glucose, 40 h treatment, mean±SD of three experiments
  ATP (HepG2, glucose) IC50: Inactive
[8]; 10 mM galactose, 40 h treatment, mean±SD of three experiments
  ATP (HepG2, galactose) IC50: Inactive
[9]; 0.5 µM
  LUM: mean difference in luminescence (ATP content) relative to plate controls: 0.5241
[9]; 1 µM
  LUM: mean difference in luminescence (ATP content) relative to plate controls: 1.069
[9]; 5 µM
  LUM: mean difference in luminescence (ATP content) relative to plate controls: 1.958
[9]; 10 µM
  LUM: mean difference in luminescence (ATP content) relative to plate controls: 1.846
[9]; 25 µM
  LUM: mean difference in luminescence (ATP content) relative to plate controls: 1.929
[9]; 50 µM
  LUM: mean difference in luminescence (ATP content) relative to plate controls: 1.555
[9]; 75 µM
  LUM: mean difference in luminescence (ATP content) relative to plate controls: 1.569
[9]; 100 µM
  LUM: mean difference in luminescence (ATP content) relative to plate controls: 1.98
[9]; 24 h exposure
  LEC (lowest effect concentration), ATP assay: ≤ 10 µM
[9]
  minimal effective concentration: 0.5 µM
[10]; [28]
  p53 (HCT-116) EC50: Inactive
[11]; 0.5 µM
  EXT: mean difference in nematode size relative to plate controls: 0.000738
[11]; 1 µM
  EXT: mean difference in nematode size relative to plate controls: 0.7865
[11]; 5 µM
  EXT: mean difference in nematode size relative to plate controls: 0.06113
[11]; 10 µM
  EXT: mean difference in nematode size relative to plate controls: 0.09116
[11]; 25 µM
  EXT: mean difference in nematode size relative to plate controls: 0.03934
[11]; 50 µM
  EXT: mean difference in nematode size relative to plate controls: 0.4385
[11]; 75 µM
  EXT: mean difference in nematode size relative to plate controls: 0.2071
[11]; 100 µM
  EXT: mean difference in nematode size relative to plate controls: 0.2541
[11]
  minimal effective concentration: 100 µM
[12]; [29]
  EC50: 4.72 ± 0.8 µM

## NNc1nc(-c2ccc(N)cc2)cs1 [2-Hydrazino-4-(4-aminophenyl) thiazole]
[1]; [15]
  IC50: 18.5 ± 2.55 µM
[1]; [16]
  IC50: 15.3 ± 1.76 µM
[1]; [17]
  IC50: 0.4 µM
[1]
  Emax: 85%
[2]; [18]
  EC50: 10.5 ± 8.1 µM
[3]
  IC50: 1.76 ± 0.57 µM
[4]; [19]
  I-ADP, % of control (O2 consumption rate): 105 (55.7) % of control
[4]; [20]
  I-sub, % of control (O2 consumption rate): 109 (14.6) % of control
[4]; [21]
  II-ADP, % of control (O2 consumption rate): 101 (68.1) % of control
[4]; [22]
  II-sub, % of control (O2 consumption rate): 98 (21.3) % of control
[4]; [23]
  Potential Mechanism: Inactive
[5]
  MMP assays efficacy (%) qHTS-HepG2: -83±12%
[5]; [24]
  IC50: 0.06 ± 0.02 µM
[6]; [25]
  Parkin recruitment: Inactive
[7]
  Rat hepatocytes (efficacy) (MMP): −50.5±1.77%
  MMP assays efficacy (%) Rat Hepatocytes: -67±14%
[7]; [26]
  IC50: 19.8 ± 11.5 µM
[7]; [27]
  IC50: 3.55 ± 3.86 µM
[8]; 5 mM glucose, 40 h treatment, mean±SD of three experiments, read-out: ATP (HepG2, glucose) IC50
  IC50: 59.5 ± 23.5 µM
[8]; 10 mM galactose, 40 h treatment, mean±SD of three experiments, read-out: ATP (HepG2, galactose) IC50
  IC50: 60.8 ± 6.99 µM
[9]; 0.5 µM
  LUM: mean difference in luminescence (ATP content) relative to plate controls: 0.02471
[9]; 1 µM
  LUM: mean difference in luminescence (ATP content) relative to plate controls: 0.06159
[9]; 5 µM
  LUM: mean difference in luminescence (ATP content) relative to plate controls: 0.05233
[9]; 10 µM
  LUM: mean difference in luminescence (ATP content) relative to plate controls: 0.08412
[9]; 25 µM
  LUM: mean difference in luminescence (ATP content) relative to plate controls: 0.4284
[9]; 50 µM
  LUM: mean difference in luminescence (ATP content) relative to plate controls: 0.3261
[9]; 75 µM
  LUM: mean difference in luminescence (ATP content) relative to plate controls: 0.5564
[9]; 100 µM
  LUM: mean difference in luminescence (ATP content) relative to plate controls: 0.6002
[9]
  minimal effective concentration: 25 µM
[10]; [28]
  p53 (HCT-116) EC50: Inactive
[11]; 0.5 µM
  EXT: mean difference in nematode size relative to plate controls: 0.05389
[11]; 1 µM
  EXT: mean difference in nematode size relative to plate controls: 0.002943
[11]; 5 µM
  EXT: mean difference in nematode size relative to plate controls: -0.00605
[11]; 10 µM
  EXT: mean difference in nematode size relative to plate controls: 0.1893
[11]; 25 µM
  EXT: mean difference in nematode size relative to plate controls: 0.2089
[11]; 50 µM
  EXT: mean difference in nematode size relative to plate controls: 0.1347
[11]; 75 µM
  EXT: mean difference in nematode size relative to plate controls: 0.3557
[11]; 100 µM
  EXT: mean difference in nematode size relative to plate controls: 0.3701
[11]
  minimal effective concentration: 25 µM
[12]; [29]
  EC50: 25.4 ± 3.24 µM

## CO[C@H]1/C=C/O[C@@]2(C)Oc3c(C)c(O)c4c(O)c(c(/C=N/N5CCN(C)CC5)c(O)c4c3C2=O)NC(=O)/C(C)=C\C=C\[C@H](C)[C@H](O)[C@@H](C)[C@@H](O)[C@@H](C)[C@H](OC(C)=O)[C@@H]1C [Rifampicin, reference compound]
[1]; [16]
  IC50: 63.2 µM
[1]; [17]
  IC50: 15.5 µM
[1]
  Emax: 85%
[2]; HepG2, 16 h
  EC50: 45.2 µM
[4]
  Potential Mechanism: Inactive
[4]; 4 µM
  I-ADP, % of control (O2 consumption rate): 85 (46.4) % of control
  I-sub, % of control (O2 consumption rate): 89 (11.7) % of control
  II-ADP, % of control (O2 consumption rate): 95 (83.4) % of control
  II-sub, % of control (O2 consumption rate): 96 (23.5) % of control
[4]; 20 µM
  I-ADP, % of control (O2 consumption rate): 71 (39.1) % of control
  I-sub, % of control (O2 consumption rate): 86 (11.3) % of control
  II-ADP, % of control (O2 consumption rate): 95 (84.2) % of control
  II-sub, % of control (O2 consumption rate): 107 (26.2) % of control
[5]
  MMP assays efficacy (%) qHTS-HepG2: -94±13%
[5]; read-out: MMP assays IC50 (µM), qHTS-HepG2
  IC50: 25.1 ± 6.38 µM
[13]
  HepG2 IC50 Galactose (MMP): Inactive
[6]
  Parkin recruitment: Inactive
[7]; [26]
  IC50: 41.4 µM
[7]; [27]
  IC50: 6.15 ± 2.2 µM
[8]
  ATP (HepG2, galactose) IC50: Inactive
  ATP (HepG2, glucose) IC50: Inactive
[14]
  MMP assays efficacy (%) Rat Hepatocytes: -68±40%
  Rat hepatocytes (efficacy) (MMP): 41.4±5.71 ( −97.5±6.10 ) %
[10]
  p53 (HCT-116) EC50: Inactive
[12]; HepG2, 2 h
  EC50: 34.5 µM
